# Source: PubChem BioAssay (NCI)
#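 Five concentrations, 48 hours, 96-well plates. Abbreviation: GI50, concentration required for 50% inhibition of growth. At the TGI there is no net growth.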
# Key:
# Assay in all cases: growth of human tumour cells (NCI), 48 h
# SF-268 CNS = system: SF-268 CNS
# HCC-2998 colon = system: HCC-2998 colon
# HS 578T breast = system: HS 578T breast
# SW-620 colon = system: SW-620 colon
# RXF 393 renal = system: RXF 393 renal
# UACC-257 melanoma = system: UACC-257 melanoma
# T-47D breast = system: T-47D breast
# SK-OV-3 ovarian = system: SK-OV-3 ovarian
# BT-549 breast = system: BT-549 breast
# CCRF-CEM leukemia = system: CCRF-CEM leukemia
# M14 melanoma = system: M14 melanoma
# UACC-62 melanoma = system: UACC-62 melanoma
# OVCAR-3 ovarian = system: OVCAR-3 ovarian
# MALME-3M melanoma = system: MALME-3M melanoma
# KM12 colon = system: KM12 colon
# SK-MEL-28 melanoma = system: SK-MEL-28 melanoma
# 786-0 renal = system: 786-0 renal
# A549 NSCLC = system: A549 NSCLC
# CAKI-1 renal = system: CAKI-1 renal
# NCI-H226 lung = system: NCI-H226 lung
# RPMI-8226 leukemia = system: RPMI-8226 leukemia
# SNB-19 CNS = system: SNB-19 CNS
# HCT-15 colon = system: HCT-15 colon
# SR leukemia = system: SR leukemia
# ACHN renal = system: ACHN renal
# U251 CNS = system: U251 CNS
# A498 renal = system: A498 renal
# HT29 colon = system: HT29 colon
# TK-10 renal = system: TK-10 renal
# HOP-62 NSCLC = system: HOP-62 NSCLC
# MDA-MB-435 = system: MDA-MB-435
# MDA-MB-231 breast = system: MDA-MB-231 breast
# UO-31 renal = system: UO-31 renal
# NCI-H23 lung = system: NCI-H23 lung
# SNB-75 CNS = system: SNB-75 CNS
# NCI-H522 lung = system: NCI-H522 lung
# NCI-H460 lung = system: NCI-H460 lung
# NCI/ADR-RES ovarian = system: NCI/ADR-RES ovarian
# SK-MEL-5 melanoma = system: SK-MEL-5 melanoma
# COLO 205 colon = system: COLO 205 colon
# SF-295 CNS = system: SF-295 CNS
# SF-539 CNS = system: SF-539 CNS
# PC-3 prostate = system: PC-3 prostate
# MOLT-4 leukemia = system: MOLT-4 leukemia
# OVCAR-5 ovarian = system: OVCAR-5 ovarian
# HL-60(TB) leukemia = system: HL-60(TB) leukemia
# OVCAR-8 ovarian = system: OVCAR-8 ovarian
# SN12C renal = system: SN12C renal
# K-562 leukemia = system: K-562 leukemia
# IGROV1 ovarian = system: IGROV1 ovarian
# DU-145 prostate = system: DU-145 prostate
# SK-MEL-2 melanoma = system: SK-MEL-2 melanoma
smiles,measurement,setting,value
Cc1cc(C)cc(NC2=C(Cl)C(=O)c3nc(C)ccc3C2=O)c1,GI50,SF-268 CNS,3.74 µM
same,TGI,SF-268 CNS,20.7 µM
same,GI50,HCC-2998 colon,3.18 µM
same,TGI,HCC-2998 colon,10.5 µM
same,GI50,HS 578T breast,2.24 µM
same,TGI,HS 578T breast,5.81 µM
same,GI50,SW-620 colon,2.07 µM
same,TGI,SW-620 colon,4.65 µM
same,GI50,RXF 393 renal,1.41 µM
same,TGI,RXF 393 renal,2.74 µM
same,GI50,UACC-257 melanoma,1.64 µM
same,TGI,UACC-257 melanoma,3.12 µM
same,GI50,T-47D breast,1.55 µM
same,TGI,T-47D breast,4.26 µM
same,GI50,SK-OV-3 ovarian,14.3 µM
same,TGI,SK-OV-3 ovarian,27.7 µM
same,GI50,BT-549 breast,1.41 µM
same,TGI,BT-549 breast,2.83 µM
same,GI50,CCRF-CEM leukemia,2.09 µM
same,TGI,CCRF-CEM leukemia,5.78 µM
same,GI50,M14 melanoma,1.63 µM
same,TGI,M14 melanoma,3.07 µM
same,GI50,UACC-62 melanoma,2.63 µM
same,TGI,UACC-62 melanoma,7.42 µM
same,GI50,OVCAR-3 ovarian,0.405 µM
same,TGI,OVCAR-3 ovarian,1.47 µM
same,GI50,MALME-3M melanoma,2.3 µM
same,TGI,MALME-3M melanoma,4.42 µM
same,GI50,KM12 colon,5.6 µM
same,TGI,KM12 colon,20.7 µM
same,GI50,SK-MEL-28 melanoma,1.99 µM
same,TGI,SK-MEL-28 melanoma,3.94 µM
same,GI50,786-0 renal,1.7 µM
same,TGI,786-0 renal,3.42 µM
same,GI50,A549 NSCLC,4.37 µM
same,TGI,A549 NSCLC,19.1 µM
same,GI50,CAKI-1 renal,1.59 µM
same,TGI,CAKI-1 renal,3.18 µM
same,GI50,NCI-H226 lung,1.8 µM
same,TGI,NCI-H226 lung,4.58 µM
same,GI50,RPMI-8226 leukemia,1.63 µM
same,TGI,RPMI-8226 leukemia,4.4 µM
same,GI50,SNB-19 CNS,3.41 µM
same,TGI,SNB-19 CNS,24.4 µM
same,GI50,HCT-15 colon,1.09 µM
same,TGI,HCT-15 colon,2.64 µM
same,GI50,SR leukemia,1.22 µM
same,TGI,SR leukemia,3.96 µM
same,GI50,ACHN renal,1.78 µM
same,TGI,ACHN renal,3.4 µM
same,GI50,U251 CNS,2.35 µM
same,TGI,U251 CNS,8.09 µM
same,GI50,A498 renal,14.3 µM
same,TGI,A498 renal,28.1 µM
same,GI50,HT29 colon,3.66 µM
same,TGI,HT29 colon,19.2 µM
same,GI50,TK-10 renal,2.21 µM
same,TGI,TK-10 renal,3.73 µM
same,GI50,HOP-62 NSCLC,4.66 µM
same,TGI,HOP-62 NSCLC,19.7 µM
same,GI50,MDA-MB-435,1.96 µM
same,TGI,MDA-MB-435,3.86 µM
same,GI50,MDA-MB-231 breast,1.68 µM
same,TGI,MDA-MB-231 breast,4.13 µM
same,GI50,UO-31 renal,1.43 µM
same,TGI,UO-31 renal,2.87 µM
same,GI50,NCI-H23 lung,1.7 µM
same,TGI,NCI-H23 lung,4.59 µM
same,GI50,SNB-75 CNS,2.15 µM
same,TGI,SNB-75 CNS,6.48 µM
same,GI50,NCI-H522 lung,2.05 µM
same,TGI,NCI-H522 lung,5.29 µM
same,GI50,NCI-H460 lung,4.2 µM
same,TGI,NCI-H460 lung,20.1 µM
same,GI50,NCI/ADR-RES ovarian,2.06 µM
same,TGI,NCI/ADR-RES ovarian,6.79 µM
same,GI50,SK-MEL-5 melanoma,1.65 µM
same,TGI,SK-MEL-5 melanoma,3.08 µM
same,GI50,COLO 205 colon,2.23 µM
same,TGI,COLO 205 colon,5.01 µM
same,GI50,SF-295 CNS,4.58 µM
same,TGI,SF-295 CNS,16.3 µM
same,GI50,SF-539 CNS,1.76 µM
same,TGI,SF-539 CNS,3.25 µM
same,GI50,PC-3 prostate,1.73 µM
same,TGI,PC-3 prostate,10.2 µM
same,GI50,MOLT-4 leukemia,1.6 µM
same,TGI,MOLT-4 leukemia,5.61 µM
same,GI50,OVCAR-5 ovarian,1.78 µM
same,TGI,OVCAR-5 ovarian,3.69 µM
same,GI50,HL-60(TB) leukemia,1.55 µM
same,TGI,HL-60(TB) leukemia,3.85 µM
same,GI50,OVCAR-8 ovarian,2.14 µM
same,TGI,OVCAR-8 ovarian,5.92 µM
same,GI50,SN12C renal,2 µM
same,TGI,SN12C renal,5.79 µM
same,GI50,K-562 leukemia,0.712 µM
same,TGI,K-562 leukemia,4.81 µM
same,GI50,IGROV1 ovarian,1.81 µM
same,TGI,IGROV1 ovarian,3.95 µM
same,GI50,DU-145 prostate,1.85 µM
same,TGI,DU-145 prostate,3.55 µM
same,GI50,SK-MEL-2 melanoma,2.88 µM
same,TGI,SK-MEL-2 melanoma,9.57 µM
